Test system: 636577-100-R-J1-PDC complex spheroid viability
Experiment: Anticancer human tumor 636577-100-R-J1-PDC patient-derived endometrial adenocarcinoma cell line growth inhibition [GQUAD]
Details: for IC50: curve of first compound; for viability, T/C: stronger effect = lower value
Method in brief: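 Tumor cells were grown as complex spheroids with HUVEC endothelial cells and mesenchymal stem cells as stroma. G-quadruplex stabilizers were combined with targeted agents over half-log dilutions from near the clinical Cmax, or from 10 microM.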

[1] = second compound 0.0316 µM, first compound 0.0316 µM
[2] = second compound 0.0316 µM, first compound 0.1 µM
[3] = second compound 0.0316 µM, first compound 0.316 µM
[4] = second compound 0.0316 µM, first compound 1 µM
[5] = second compound 0.0316 µM, first compound 3.16 µM
[6] = second compound 0.0316 µM, first compound 10 µM
[7] = second compound 0.1 µM, first compound 0.0316 µM
[8] = second compound 0.1 µM, first compound 0.1 µM
[9] = second compound 0.1 µM, first compound 0.316 µM
[10] = second compound 0.1 µM, first compound 1 µM
[11] = second compound 0.1 µM, first compound 3.16 µM
[12] = second compound 0.1 µM, first compound 10 µM
[13] = second compound 0.316 µM, first compound 0.0316 µM
[14] = second compound 0.316 µM, first compound 0.1 µM
[15] = second compound 0.316 µM, first compound 0.316 µM
[16] = second compound 0.316 µM, first compound 1 µM
[17] = second compound 0.316 µM, first compound 3.16 µM
[18] = second compound 0.316 µM, first compound 10 µM
[19] = second compound 1 µM, first compound 0.0316 µM
[20] = second compound 1 µM, first compound 0.1 µM
[21] = second compound 1 µM, first compound 0.316 µM
[22] = second compound 1 µM, first compound 1 µM
[23] = second compound 1 µM, first compound 3.16 µM
[24] = second compound 1 µM, first compound 10 µM
[25] = second compound 3.16 µM, first compound 0.0316 µM
[26] = second compound 3.16 µM, first compound 0.1 µM
[27] = second compound 3.16 µM, first compound 0.316 µM
[28] = second compound 3.16 µM, first compound 1 µM
[29] = second compound 3.16 µM, first compound 3.16 µM
[30] = second compound 3.16 µM, first compound 10 µM
[31] = second compound 10 µM, first compound 0.0316 µM
[32] = second compound 10 µM, first compound 0.1 µM
[33] = second compound 10 µM, first compound 0.316 µM
[34] = second compound 10 µM, first compound 1 µM
[35] = second compound 10 µM, first compound 3.16 µM
[36] = second compound 10 µM, first compound 10 µM
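Note: viability read after seven days of drug exposure.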
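Throughout, for viability, T/C: luminescence signal used as a proxy for viable cells; 100% = DMSO vehicle control wells.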

## CC(C)n1c(=O)n(C)c2cnc3cc(F)c(-c4ccc(OCCCN5CCCCC5)nc4)cc3c21 + Cc1[nH]c2ccc(F)cc2c1-c1nc2c3cccnc3c3ncccc3c2[nH]1
Second compound 0.0316 µM
  IC50: > 10000 nM
Second compound 0.1 µM
  IC50: 10000 nM
Second compound 0.316 µM
  IC50: 7080 nM
Second compound 1 µM
  IC50: 31.6 nM
Second compound 3.16 µM
  IC50: 3590 nM
Second compound 10 µM
  IC50: 6960 nM
[1]
  viability, T/C: 73.1%
[2]
  viability, T/C: 74.1%
[3]
  viability, T/C: 88.2%
[4]
  viability, T/C: 30%
[5]
  viability, T/C: 99.5%
[6]
  viability, T/C: 52.4%
[7]
  viability, T/C: 74.4%
[8]
  viability, T/C: 91%
[9]
  viability, T/C: 70.8%
[10]
  viability, T/C: 37.9%
[11]
  viability, T/C: 69.7%
[12]
  viability, T/C: 48.6%
[13]
  viability, T/C: 80.9%
[14]
  viability, T/C: 96.9%
[15]
  viability, T/C: 60.6%
[16]
  viability, T/C: 58.2%
[17]
  viability, T/C: 87.7%
[18]
  viability, T/C: 38.5%
[19]
  viability, T/C: 57.2%
[20]
  viability, T/C: 43.3%
[21]
  viability, T/C: 60.9%
[22]
  viability, T/C: 54.3%
[23]
  viability, T/C: 98.5%
[24]
  viability, T/C: 46.8%
[25]
  viability, T/C: 57.1%
[26]
  viability, T/C: 54.3%
[27]
  viability, T/C: 59.3%
[28]
  viability, T/C: 70.8%
[29]
  viability, T/C: 47%
[30]
  viability, T/C: 29.8%
[31]
  viability, T/C: 71.9%
[32]
  viability, T/C: 50.6%
[33]
  viability, T/C: 85.5%
[34]
  viability, T/C: 89.3%
[35]
  viability, T/C: 70%
[36]
  viability, T/C: 40%

## O=C(c1cc(Cc2n[nH]c(=O)c3ccccc23)ccc1F)N1CCN(C(=O)C2CC2)CC1 + Cc1[nH]c2ccc(F)cc2c1-c1nc2c3cccnc3c3ncccc3c2[nH]1
Second compound 0.0316 µM
  IC50: 305 nM
Second compound 0.1 µM
  IC50: 3060 nM
Second compound 0.316 µM
  IC50: 2690 nM
Second compound 1 µM
  IC50: 5550 nM
Second compound 3.16 µM
  IC50: < 31.6 nM
Second compound 10 µM
  IC50: 3280 nM
[1]
  viability, T/C: 103%
[2]
  viability, T/C: 79.4%
[3]
  viability, T/C: 46.5%
[4]
  viability, T/C: 58.6%
[5]
  viability, T/C: 50.4%
[6]
  viability, T/C: 40.6%
[7]
  viability, T/C: 100%
[8]
  viability, T/C: 96.5%
[9]
  viability, T/C: 65.2%
[10]
  viability, T/C: 43.7%
[11]
  viability, T/C: 67.6%
[12]
  viability, T/C: 36.9%
[13]
  viability, T/C: 90.1%
[14]
  viability, T/C: 75.3%
[15]
  viability, T/C: 66.7%
[16]
  viability, T/C: 61.6%
[17]
  viability, T/C: 53.7%
[18]
  viability, T/C: 32.4%
[19]
  viability, T/C: 60.6%
[20]
  viability, T/C: 65.7%
[21]
  viability, T/C: 65.6%
[22]
  viability, T/C: 57.9%
[23]
  viability, T/C: 63.4%
[24]
  viability, T/C: 37%
[25]
  viability, T/C: 39.4%
[26]
  viability, T/C: 40.7%
[27]
  viability, T/C: 43.5%
[28]
  viability, T/C: 43.3%
[29]
  viability, T/C: 31.6%
[30]
  viability, T/C: 29.9%
[31]
  viability, T/C: 34.6%
[32]
  viability, T/C: 64.9%
[33]
  viability, T/C: 57.3%
[34]
  viability, T/C: 41.9%
[35]
  viability, T/C: 54%
[36]
  viability, T/C: 33%

## Cc1[nH]c2ccccc2c1CCNCc1ccc(/C=C/C(=O)NO)cc1 + CN(C)c1ccc(Nc2c3ccc(NC(=O)CCN4CCCC4)cc3nc3cc(NC(=O)CCN4CCCC4)ccc23)cc1
Second compound 0.0316 µM
  IC50: 3.84 nM
Second compound 0.1 µM
  IC50: 4.62 nM
Second compound 0.316 µM
  IC50: 4.84 nM
Second compound 1 µM
  IC50: 3.15 nM
Second compound 3.16 µM
  IC50: < 0.999 nM
Second compound 10 µM
  IC50: < 0.999 nM
Second compound 0.0316 µM, first compound 0.000999 µM
  viability, T/C: 84%
Second compound 0.0316 µM, first compound 0.00316 µM
  viability, T/C: 49.5%
Second compound 0.0316 µM, first compound 0.00999 µM
  viability, T/C: 40.6%
[1]
  viability, T/C: 15.7%
Second compound 0.0316 µM, first compound 0.0999 µM
  viability, T/C: 8.74%
[3]
  viability, T/C: 12.3%
Second compound 0.1 µM, first compound 0.000999 µM
  viability, T/C: 80.7%
Second compound 0.1 µM, first compound 0.00316 µM
  viability, T/C: 56.5%
Second compound 0.1 µM, first compound 0.00999 µM
  viability, T/C: 36.1%
[7]
  viability, T/C: 14.2%
Second compound 0.1 µM, first compound 0.0999 µM
  viability, T/C: 8.43%
[9]
  viability, T/C: 8.87%
Second compound 0.316 µM, first compound 0.000999 µM
  viability, T/C: 62.3%
Second compound 0.316 µM, first compound 0.00316 µM
  viability, T/C: 62.5%
Second compound 0.316 µM, first compound 0.00999 µM
  viability, T/C: 30.4%
[13]
  viability, T/C: 14%
Second compound 0.316 µM, first compound 0.0999 µM
  viability, T/C: 8.97%
[15]
  viability, T/C: 9.2%
Second compound 1 µM, first compound 0.000999 µM
  viability, T/C: 65.4%
Second compound 1 µM, first compound 0.00316 µM
  viability, T/C: 48.6%
Second compound 1 µM, first compound 0.00999 µM
  viability, T/C: 31.5%
[19]
  viability, T/C: 13.9%
Second compound 1 µM, first compound 0.0999 µM
  viability, T/C: 9.95%
[21]
  viability, T/C: 10.1%
Second compound 3.16 µM, first compound 0.000999 µM
  viability, T/C: 37.1%
Second compound 3.16 µM, first compound 0.00316 µM
  viability, T/C: 29.2%
Second compound 3.16 µM, first compound 0.00999 µM
  viability, T/C: 20.2%
[25]
  viability, T/C: 15.6%
Second compound 3.16 µM, first compound 0.0999 µM
  viability, T/C: 10.3%
[27]
  viability, T/C: 10.9%
Second compound 10 µM, first compound 0.000999 µM
  viability, T/C: 6.06%
Second compound 10 µM, first compound 0.00316 µM
  viability, T/C: 7.54%
Second compound 10 µM, first compound 0.00999 µM
  viability, T/C: 7.16%
[31]
  viability, T/C: 6.21%
Second compound 10 µM, first compound 0.0999 µM
  viability, T/C: 6.38%
[33]
  viability, T/C: 3.97%

Source: PubChem BioAssay AID2060504 (Molecular Pharmacology Branch, DTP, NCI, 2025)
